Columns and labels:
[1] = target: T1, wt FucP (Escherichia coli, UniProt P11551); assay: SSM-based electrophysiology, proteoliposomes with wt FucP; type: biochemical
T1 construct: made in house; host or cells: E. coli BL21 DE3
T1 sequence (P11551 1-438): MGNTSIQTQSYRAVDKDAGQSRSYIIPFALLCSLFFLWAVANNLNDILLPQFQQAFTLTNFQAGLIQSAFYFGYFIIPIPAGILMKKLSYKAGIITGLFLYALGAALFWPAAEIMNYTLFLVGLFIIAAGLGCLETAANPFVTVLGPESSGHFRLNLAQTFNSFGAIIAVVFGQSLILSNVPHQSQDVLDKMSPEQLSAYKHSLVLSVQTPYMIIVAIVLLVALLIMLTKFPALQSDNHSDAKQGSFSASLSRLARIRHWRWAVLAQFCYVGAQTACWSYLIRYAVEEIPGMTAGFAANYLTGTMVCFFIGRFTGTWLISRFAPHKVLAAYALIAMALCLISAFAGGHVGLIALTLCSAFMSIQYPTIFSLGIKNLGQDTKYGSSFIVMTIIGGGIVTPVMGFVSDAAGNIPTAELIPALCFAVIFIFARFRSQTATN
Description: (§1) Reconstitution of purified proteins (2–20 mg/ml) was carried out with E. coli phospholipids (Avanti Polar Lipids, E. coli polar lipid extract). Preformed liposomes (0.2–2 ml, 10 mg/ml) were dissolved in 1% (w/v) n-octyl-β-D-glucoside, and the protein suspension was mixed on ice to a concentration of 0.2 mg protein/mg lipid (LPR 5).
(§2) Wt XylE, wt FucP, and the mutant proteins were reconstituted using overnight incubation in 400 mg/ml BioBeads (SM-2 Adsorbent Media, Bio-Rad) at 4 °C. After reconstitution, the samples were diluted to 2.5 mg/ml lipid concentration, frozen in liquid nitrogen, and stored at −80 °C. For wt LacY and mutant proteins, this procedure was not successful. We, therefore, applied the previously established n-octyl-β-D-glucoside dilution method (1:100) ([69]).
(§3) SSM measurements were performed as described ([20], [23]). After thawing the sample and sonication in a water bath, 30 μl of proteoliposomes (2.5 mg/ml lipid at LPR 5) was allowed to adsorb for 1 to 2 h to an octadecanethiol/phosphatidylcholine hybrid bilayer on a gold surface (the sensor).
(§4) For measurements, a single solution exchange configuration ([23]) was employed that consisted in three phases of 0.5 s duration each: Flow of nonactivating solution (NA), activating solution (A), and nonactivating solution (NA). Only the activating solution contained the sugar. When pH dependence is determined, pH of NA and A solutions during one experiment are kept constant. Between experiments using different pH values, the sensor was incubated at the new pH for 3 min to equilibrate the intraliposomal pH.
(§5) Instruments with different time resolution were used as required. […] Currents were recorded throughout the entire time and amplified with a current amplifier set to a gain of […] and a rise time of 10 ms (low time-resolution set up) or 3 ms (high time-resolution set up).
(§6) All NA solutions were buffered in 100 mM KPi at a given pH value. NA solutions used with LacY contained 1 mM DTT in addition. A solutions were made from NA solutions by adding the respective sugar at a given concentration to induce the symport reaction. Sugar concentration jumps initiated sugar-proton symport, and charge transfer was measured by capacitive coupling. Therefore, only transient currents were recorded.
(§7) Each dataset represented with error bars was generated by performing the same experiment on multiple sensors (n ≥ 3). Error bars represent standard deviations of the average value. When peak currents are averaged across sensors, datasets are normalized before averaging. When the protein catalyzes transport and PSS currents are negligible, the peak current of the transient represents a good approximation of the current generated by the steady-state symport activity of the transporter. In most cases, peak currents have been used to derive kinetic and thermodynamic parameters according to the equations given in Figure 2 (KM, Imax ∼ Vmax, Hill coefficient n), Figure 4 (KD and rate constants for sugar binding kon and release koff), and Figure 6 (pKa for proton binding and pKb for proton release). Reconstruction of transporter currents for analysis of biphasic currents has been performed as described previously ([70]). This is required when transport and PSS currents are observed at the same time.

[2] = target: T2, wt LacY (Escherichia coli, UniProt P02920); assay: SSM-based electrophysiology, proteoliposomes with wt LacY; type: biochemical; settings: pH 7.6
T2 construct: made in house; host or cells: E. coli XL1-Blue
T2 sequence (P02920 1-417): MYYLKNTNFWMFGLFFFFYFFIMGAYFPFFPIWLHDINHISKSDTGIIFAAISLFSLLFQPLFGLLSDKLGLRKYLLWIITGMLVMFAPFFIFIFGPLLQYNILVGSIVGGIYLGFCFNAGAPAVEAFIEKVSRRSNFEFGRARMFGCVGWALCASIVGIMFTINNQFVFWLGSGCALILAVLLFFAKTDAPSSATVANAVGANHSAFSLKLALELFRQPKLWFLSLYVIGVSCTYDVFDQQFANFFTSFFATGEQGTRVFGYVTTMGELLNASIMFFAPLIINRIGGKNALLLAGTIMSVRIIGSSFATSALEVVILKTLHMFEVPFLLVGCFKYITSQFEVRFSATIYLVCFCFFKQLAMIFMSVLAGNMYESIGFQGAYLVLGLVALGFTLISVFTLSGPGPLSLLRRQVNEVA
Description: as §1, §2, §3, §4, §5, §6, §7

[3] = target: T3, E325A LacY (Escherichia coli, UniProt P02920, E325A); assay: SSM-based electrophysiology, transport-deficient mutant E325A LacY (PSS currents, electrogenic binding); type: biochemical
T3 construct: made in house; host or cells: E. coli XL1-Blue
Description: as §1, §2, §3, §4, §5, §6, §7

[4] = system: C154G/V331C LacY; parameters: method as in PMID 19383792, PMID 17176050; settings: stopped flow; cited from earlier work

T3 sequence (P02920 whole entry E325A): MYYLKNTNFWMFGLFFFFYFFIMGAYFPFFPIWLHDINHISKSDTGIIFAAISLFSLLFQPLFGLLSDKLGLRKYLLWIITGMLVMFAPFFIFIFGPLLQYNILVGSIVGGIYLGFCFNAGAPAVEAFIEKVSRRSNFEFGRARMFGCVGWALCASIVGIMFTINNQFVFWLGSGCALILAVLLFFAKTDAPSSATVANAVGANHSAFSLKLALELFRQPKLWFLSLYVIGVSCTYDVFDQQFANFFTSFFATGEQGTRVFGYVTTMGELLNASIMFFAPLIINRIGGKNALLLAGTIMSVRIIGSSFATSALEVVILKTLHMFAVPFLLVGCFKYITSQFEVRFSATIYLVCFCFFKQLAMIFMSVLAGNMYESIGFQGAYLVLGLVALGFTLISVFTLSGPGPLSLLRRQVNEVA

OC[C@H]1OC(O)[C@@H](O)[C@H](O)[C@@H]1O (stereo partly drawn) [D-altrose]
induction of currents (substrate identification) ([1]; pH 8.0): generated signals identifying them as substrates

OC1OC[C@@H](O)[C@@H](O)[C@@H]1O (stereo partly drawn) [D-arabinose]
EC50 ([1]; EC50,1, double Michaelis–Menten fit, pH 7.6, peak currents): 0.82 ± 0.53 mM | EC50 ([1]; EC50,2, double Michaelis–Menten fit, pH 7.6, peak currents): 38 ± 9 mM | Imax in percent of Imax of the main substrate (L-fucose) ([1]; pH 7.6): 132 ± 13% | n (Hill coefficient) ([1]; pH 7.6, peak currents, Hill equation): 0.62 ± 0.04

OC[C@@H]1OC(O)[C@@H](O)[C@H](O)[C@@H]1O (stereo partly drawn) [L-galactose]
Imax in percent of Imax of the main substrate (L-fucose) ([1]; pH 7.6): 123 ± 8%

OC[C@H]1O[C@@H](O[C@@H]2[C@@H](CO)OC(O)(CO)[C@H]2O)[C@H](O)[C@@H](O)[C@H]1O (mixture of isomers) [Lactulose]
EC50 ([2]; EC50,1, double Michaelis–Menten fit, peak currents): 0.88 ± 0.1 mM | EC50 ([2]; EC50,2, double Michaelis–Menten fit, peak currents): 90 ± 42 mM | Imax in percent of Imax of the main substrate (D-lactose) [2]: 71 ± 8% | n (Hill coefficient) ([2]; peak currents, Hill equation): 0.55 ± 0.08 | Kd [3]: 5 ± 0.6 mM | Q (pC) Mut, transferred charge ([3]; pH 7.6, saturating substrate (100 mM D-lactose, lactulose; 5 mM TDG)): 2.2 ± 0.5 (pH 7.6) pC | kobs (s^−1) mut ([3]; saturating substrate (100 mM D-lactose, lactulose; 5 mM TDG), kobs = 1/τ, limited by time resolution): 380 ± 40 s⁻¹

O=[N+]([O-])c1ccc(OC2O[C@H](CO)[C@H](O)[C@H](O)[C@H]2O)cc1 (stereo partly drawn) [p-nitrophenyl-D-galactopyranoside]
rate constant of the binding reaction [4]: 10^6 M^−1 s^−1 | rate constant of the following conformational changes [4]: 250 s⁻¹
